Assay results: EP2818472A1, “Imidazo[4,5-c]pyridine and pyrrolo[3,2-c]pyridine compounds as G-protein-coupled receptor kinase 5 (GRK5) modulators” (Max-Planck-Gesellschaft zur Förderung der Wissenschaften …, priority 2013, dated 2014)

Tested on: beta-TC6 cells
Assay: Insulin HTRF assay (relative activity Ar) in beta-TC6 cells
Assay type: cell-based, mouse
Details: Mus musculus, Beta-TC6, 4 h, insulin HTRF, supernatant of beta-TC6 cells, incubation with test compound at 37°C for 2, 3, 4h; read-out: Ar (relative activity)
Procedure, shortened: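 beta-TC6 cells (15k/well, seeded 24 or 48 h) washed, then exposed to compound in induction buffer (0.5% DMSO final) for 2, 3 or 4 h at 37°C.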

Compound | Emax [%]
Cn1c(NCc2ccccc2F)nc2cnc(-c3ccc(F)cc3)cc21 [Compound 657, 6-(4-fluorophenyl)-N-[(2-fluorophenyl)methyl]-1-methyl-imidazo[4,5-c]pyridin-2-amine] | 30 to 50
FC(F)(F)Oc1cccc(-c2nc3c(N4CCOCC4)nccc3[nH]2)c1 [Compound 446, 4-[2-[3-(trifluoromethoxy)phenyl]-1H-imidazo[4,5-c]pyridin-4-yl]morpholine] | 30 to 50
CNc1nc2cnc(-c3cccs3)cc2n1Cc1cccnc1 [Compound 566, N-methyl-1-(3-pyridylmethyl)-6-(2-thienyl)imidazo[4,5-c]pyridin-2-amine] | 30 to 50
c1cc2[nH]c(-c3ccc4c(c3)OCCO4)nc2c(NCC2CC2)n1 [Compound 419, N-(cyclopropylmethyl)-2-(2,3-dihydro-1,4-benzodioxin-6-yl)-1H-imidazo[4,5-c]pyridin-4-amine] | 50 to 100
COc1cc(-c2cc3c(cn2)nc(NCc2ccccc2F)n3C)ccc1O [Compound 656, 4-[2-[(2-fluorophenyl)methylamino]-1-methyl-imidazo[4,5-c]pyridin-6-yl]-2-methoxy-phenol] | 30 to 50
Cc1cccc(-c2nc3c(Nc4cccc(O)c4)nccc3[nH]2)c1 [Compound 438, 3-[[2-(m-tolyl)-1H-imidazo[4,5-c]pyridin-4-yl]amino]phenol] | 30 to 50
COc1ccc(Nc2cc3c(cn2)cc(-c2cnn(C)c2)n3C)cn1 [Compound 130, N-(6-methoxy-3-pyridyl)-1-methyl-2-(1-methylpyrazol-4-yl)pyrrolo[3,2-c]pyridin-6-amine] | > 100
CC(=O)N(C)c1cccc(-c2cc3cnc(Nc4ccc5c(c4)OCO5)cc3n2C)c1 [Compound 169, N-[3-[6-(1,3-benzodioxol-5-ylamino)-1-methyl-pyrrolo[3,2-c]pyridin-2-yl]phenyl]-N-methyl-acetamide] | 30 to 50
CC(C)Oc1cccc(Nc2cc3[nH]c(-c4ccc(C(=O)N(C)C)cc4)cc3cn2)c1 [Compound 44, 4-[6-(3-isopropoxyanilino)-1H-pyrrolo[3,2-c]pyridin-2-yl]-N,N-dimethyl-benzamide] | 30 to 50
CNc1nc2cnc(Nc3ccc(C#N)cc3)cc2n1-c1cccc(F)c1 [Compound 686, 4-[[1-(3-fluorophenyl)-2-(methylamino)imidazo[4,5-c]pyridin-6-yl]amino]benzonitrile] | 30 to 50
COc1ccc(OC)c(CCNc2nc3cnc(-c4ccc(O)c(OC)c4)cc3n2C)c1 [Compound 594, 4-[2-[2-(2,5-dimethoxyphenyl)ethylamino]-1-methyl-imidazo[4,5-c]pyridin-6-yl]-2-methoxy-phenol] | 30 to 50
COc1ccc(Cn2cnc3cnc(Nc4ccc5c(c4)OCO5)cc32)cc1OC [Compound 731, N-(1,3-benzodioxol-5-yl)-1-[(3,4-dimethoxyphenyl)methyl]imidazo[4,5-c]pyridin-6-amine] | 50 to 100
c1ccc(CNc2nccc3[nH]c(-c4ccncc4)nc23)cc1 [Compound 428, N-benzyl-2-(4-pyridyl)-1H-imidazo[4,5-c]pyridin-4-amine] | 30 to 50
CN(C)c1cccc(Nc2cc3c(cn2)ncn3-c2ccccc2)c1 [Compound 691, N1,N1-dimethyl-N3-(1-phenylimidazo[4,5-c]pyridin-6-yl)benzene-1,3-diamine] | 30 to 50
CNc1nc2cnc(-c3cccs3)cc2n1Cc1ccc(OC)c(OC)c1 [Compound 880, 1-[(3,4-dimethoxyphenyl)methyl]-N-methyl-6-(2-thienyl)imidazo[4,5-c]pyridin-2-amine] | 30 to 50
COc1cccc(Nc2cc3c(cn2)nc(-c2ccc(OC)c(OC)c2)n3C)c1 [Compound 718, 2-(3,4-dimethoxyphenyl)-N-(3-methoxyphenyl)-1-methyl-imidazo[4,5-c]pyridin-6-amine] | 50 to 100
CN1CCN(c2cc3c(cn2)cc(-c2cnn(C)c2)n3Cc2ccccc2)CC1 [Compound 154, 1-benzyl-6-(4-methylpiperazin-1-yl)-2-(1-methylpyrazol-4-yl)pyrrolo[3,2-c]pyridine] | 30 to 50
CN(C)C(=O)c1ccc(-c2cc3cnc(Nc4cccc(OC(F)(F)F)c4)cc3[nH]2)cc1 [Compound 33, N,N-dimethyl-4-[6-[3-(trifluoromethoxy)anilino]-1H-pyrrolo[3,2-c]pyridin-2-yl]benzamide] | 30 to 50
Cn1c(Nc2ccccc2)nc2cnc(Nc3ccccn3)cc21 [Compound 637, 1-methyl-N2-phenyl-N6-(2-pyridyl)imidazo[4,5-c]pyridine-2,6-diamine] | 30 to 50
COc1ccc(Cn2cnc3cnc(-c4cc(OC)c(OC)c(OC)c4)cc32)cc1OC [Compound 738, 1-[(3,4-dimethoxyphenyl)methyl]-6-(3,4,5-trimethoxyphenyl)imidazo[4,5-c]pyridine] | 30 to 50
CNc1nc2cnc(-c3ccc(O)c(OC)c3)cc2n1-c1cccc(F)c1 [Compound 888, 4-[1-(3-fluorophenyl)-2-(methylamino)imidazo[4,5-c]pyridin-6-yl]-2-methoxy-phenol] | 30 to 50

Compound | Emax [%]
CN(C)c1ccc(-c2cc3cnc(Nc4ccccn4)cc3n2C)cc1 [Compound 59, 2-(4-dimethylaminophenyl)-1-methyl-N-(2-pyridyl)pyrrolo[3,2-c]pyridin-6-amine] | 0 to 30
CNc1nc2cnc(Nc3cc(OC)c(OC)c(OC)c3)cc2n1Cc1cccnc1 [Compound 559, N2-methyl-1-(3-pyridylmethyl)-N6-(3,4,5-trimethoxyphenyl)imidazo[4,5-c]pyridine-2,6-diamine] | 50 to 100
CNc1nc2cnc(Nc3cccc(O)c3)cc2n1Cc1ccccc1 [Compound 535, 3-[[1-benzyl-2-(methylamino)imidazo[4,5-c]pyridin-6-yl]amino]phenol] | 50 to 100
CNc1nc2cnc(-c3ccccc3)cc2n1Cc1ccc(OC)c(OC)c1 [Compound 669, 1-[(3,4-dimethoxyphenyl)methyl]-N-methyl-6-phenyl-imidazo[4,5-c]pyridin-2-amine] | 30 to 50
CS(=O)(=O)c1ccc(Nc2cc3[nH]c(-c4cccc(F)c4)cc3cn2)cc1 [Compound 16, 2-(3-fluorophenyl)-N-(4-methylsulfonylphenyl)-1H-pyrrolo[3,2-c]pyridin-6-amine] | 30 to 50
COc1ccc(Nc2cc3[nH]c(-c4cccc(F)c4)cc3cn2)cn1 [Compound 8, 2-(3-fluorophenyl)-N-(6-methoxy-3-pyridyl)-1H-pyrrolo[3,2-c]pyridin-6-amine] | 30 to 50
CNc1nc2cnc(Nc3ccc(F)c(Cl)c3)cc2n1-c1cc(OC)c(OC)c(OC)c1 [Compound 753, N6-(3-chloro-4-fluoro-phenyl)-N2-methyl-1-(3,4,5-trimethoxyphenyl)imidazo[4,5-c]pyridine-2,6-diamine] | 0 to 30
COc1ccc(-c2nc3c(NCC(C)C)nccc3[nH]2)cc1OC [Compound 344, 2-(3,4-dimethoxyphenyl)-N-isobutyl-1H-imidazo[4,5-c]pyridin-4-amine] | 30 to 50
COc1ccc(OC)c(CCNc2nc3cnc(-c4cccs4)cc3n2C)c1 [Compound 595, N-[2-(2,5-dimethoxyphenyl)ethyl]-1-methyl-6-(2-thienyl)imidazo[4,5-c]pyridin-2-amine] | 30 to 50
CNc1nc2cnc(Nc3cc(OC)c(OC)c(OC)c3)cc2n1-c1cccc(F)c1 [Compound 679, 1-(3-fluorophenyl)-N2-methyl-N6-(3,4,5-trimethoxyphenyl)imidazo[4,5-c]pyridine-2,6-diamine] | 50 to 100
CNc1nc2cnc(Nc3ccc(OC)cc3OC)cc2n1CCN1CCOCC1 [Compound 553, N6-(2,4-dimethoxyphenyl)-N2-methyl-1-(2-morpholinoethyl)imidazo[4,5-c]pyridine-2,6-diamine] | 30 to 50
CC(=O)Nc1cccc(Nc2cc3c(cn2)cc(-c2ccc(C(=O)N(C)C)cc2)n3C)c1 [Compound 56, 4-[6-(3-acetamidoanilino)-1-methyl-pyrrolo[3,2-c]pyridin-2-yl]-N,N-dimethyl-benzamide] | 50 to 100
Cn1cc(-c2cc3cnc(Nc4cccnc4)cc3n2C)cn1 [Compound 131, 1-methyl-2-(1-methylpyrazol-4-yl)-N-(3-pyridyl)pyrrolo[3,2-c]pyridin-6-amine] | > 100
Cc1cccc(-c2nc3c(Nc4cccc(NS(C)(=O)=O)c4)nccc3[nH]2)c1 [Compound 439, N-[3-[[2-(m-tolyl)-1H-imidazo[4,5-c]pyridin-4-yl]amino]phenyl]methanesulfonamide] | 30 to 50
COc1ccc(-c2cc3c(cn2)nc(NCc2cccc(C)c2)n3C)cc1 [Compound 807, 6-(4-methoxyphenyl)-1-methyl-N-(m-tolylmethyl)imidazo[4,5-c]pyridin-2-amine] | 30 to 50
CN(C)C(=O)c1ccc(-c2cc3c(Nc4ccccn4)nccc3n2C)cc1 [Compound 219, N,N-di methyl-4-[1-methyl-4-(2-pyridylamino)pyrrolo[3,2-c]pyridin-2-yl]benzamide] | 30 to 50
COc1cccc(Nc2cc3[nH]c(-c4cn[nH]c4)cc3cn2)c1 [Compound 110, N-(3-methoxyphenyl)-2-(1H-pyrazol-4-yl)-1H-pyrrolo[3,2-c]pyridin-6-amine] | > 100
COc1ccc(Nc2cc3[nH]c(-c4ccccn4)cc3cn2)cc1 [Compound 65, N-(4-methoxyphenyl)-2-(2-pyridyl)-1H-pyrrolo[3,2-c]pyridin-6-amine] | > 100
c1ccc(CCNc2nccc3[nH]c(-c4ccncc4)nc23)cc1 [Compound 434, N-phenethyl-2-(4-pyridyl)-1H-imidazo[4,5-c]pyridin-4-amine] | 30 to 50
COc1ccc(-c2nc3c(NC4CCC(O)CC4)nccc3[nH]2)cc1OC (stereo not drawn) [Compound 348, 4-[[2-(3,4-dimethoxyphenyl)-1H-imidazo[4,5-c]pyridin-4-yl]amino]cyclohexanol] | 30 to 50
CNc1nc2cnc(Nc3ccc(OC)cc3)cc2n1-c1ccccc1 [Compound 509, N6-(4-methoxyphenyl)-N2-methyl-1-phenyl-imidazo[4,5-c]pyridine-2,6-diamine] | 50 to 100
